Like-named read-outs stand apart in the source and are kept apart here.
Columns and labels:
[1] = Biodistribution of Tc-99m complexes in guinea pigs (heart uptake, heart/blood); details: 5 minutes, Tc-99m complex; for 5 Minute Guinea Pig % HT Uptake: jugular vein injection
Procedure: (§1) The procedures used for determining biodistribution are as follows.
(§2) Guinea Pigs--The guinea pigs are anesthetized and the technetium complex is injected into the jugular vein after a cutdown. The animals are sacrificed after 5 minutes and the organs removed and counted as with the rats.
(§3) For guinea pigs, significant heart uptake is determined if the percentage of technetium in the heart is greater than 0.5% and the heart/blood ratio is greater than 1.

[2] = in vivo, 5 min
Procedure: as §1, §2, §3

[3] = rat, in vivo; cited from earlier work
[4] = in vivo; cited from earlier work
[5] = literature, Green et al. 1985; cited from earlier work

Q: With `CCc1cccc(C=NCC(C)(CN=Cc2cccc(CC)c2O)CN=Cc2cccc(CC)c2O)c1O` (centres unmarked) [2-ethylphenol, 6,6'-[[2-[[[3-ethyl-2-hydroxyphenyl)methylene]amino]methyl]2-methyl-1,3-propanediyl]bis(nitrilomethylidyne)]bis-] as the compound, how does the “5 Minute Guinea Pig % HT Uptake” value [1] read?
A: The value was 0.47%.

Q: Which “5 Minute Guinea Pig % HT Uptake” value [1] does the source give for `C=CCOCC(CN=Cc1ccccc1O)(CN=Cc1ccccc1O)CN=Cc1ccccc1O` (centres unmarked) [phenol, 2,2'-[[2-[[[(2-hydroxyphenyl)methylene]amino]methyl]-2-propenyloxymethyl-1,3-propanediyl]bis(nitrilomethylidyne)]bis-] here?
A: Its value is 1.09%.

Q: For `COc1c(O)c(C=NCC(C)(CN=Cc2c(O)c(OC)c(OC)c(OC)c2OC)CN=Cc2c(O)c(OC)c(OC)c(OC)c2OC)c(OC)c(OC)c1OC` (centres unmarked) [2,3,4,5-tetramethoxyphenol, 6,6'-[[2-[[[(3,4,5,6-tetramethoxy-2-hydroxyphenyl)methylene]amino]methyl]-2-methyl-1,3-propanediyl]bis(nitrilomethylidyne)]bis-], which “5 Minute Guinea Pig % HT Uptake” value [1] is on record?
A: The value was 1.24%.

Q: Which “5 Minute Guinea Pig % HT Uptake” value [1] does the source give for `COc1ccc(COCC(CN=Cc2ccccc2O)(CN=Cc2ccccc2O)CN=Cc2ccccc2O)cc1` (centres unmarked) [phenol, 2,2'-[[2-[[[2-hydroxyphenyl)methylene]amino]methyl]-2-(4-methoxyphenyl)methoxymethyl-1,3-propanediyl]bis(nitrilomethylidyne)]bis-] here?
A: The value was 1.08%.

Q: Which “5 Minute Guinea Pig % HT Uptake” value [1] does the source give for `CC(C)OCC(CN=Cc1ccccc1O)(CN=Cc1ccccc1O)CN=Cc1ccccc1O` (centres unmarked) [Phenol, 2,2'-[[2[[[(2-hydroxyphenyl)methylene]amino]methyl]-2-(1-methylethoxy)methyl-1,3-propanediyl]bis(nitrilomethylidyne)]bis-] here?
A: The value was 0.57%.

Q: With `CCCCOCC(CN=Cc1ccccc1O)(CN=Cc1ccccc1O)CN=Cc1ccccc1O` (centres unmarked) [Phenol, 2,2'[[-[[[(2-hydroxyphenyl)methylene]amino]methyl]-2-butoxymethyl-1,3-propandiyl]bis(nitrilomethylidyne)]bis-] as the compound, how does the “5 Minute Guinea Pig % HT Uptake” value [1] read?
A: Its value is 1.463%.

Q: Which “5 Minute Guinea Pig % HT Uptake” value [1] does the source give for `CCCCCCOCC(CN=Cc1ccccc1O)(CN=Cc1ccccc1O)CN=Cc1ccccc1O` (centres unmarked) [phenol, 2,2,'-[[2-[[[(2-hydroxyphenyl)methylene]amino]methyl]-2-hexyloxymethyl-1,3-propanediyl]bis(nitrilomethylidyne)]bis-] here?
A: Its value is 1.19%.

Q: With `COc1c(C)cc(O)c(C=NCC(C)(CN=Cc2c(O)cc(C)c(OC)c2C)CN=Cc2c(O)cc(C)c(OC)c2C)c1C` (centres unmarked) [3,5-dimethyl-4-methoxyphenol, 2,2'-[[2-[[[(4,6-dimethyl-5-methoxy-2-hydroxyphenyl)methylene]amino]methyl]-2-methyl-1,3-propanediyl]bis(nitrilomethylidyne)]bis-] as the compound, how does the “5 Minute Guinea Pig % HT Uptake” value [1] read?
A: The value was 1.07%.

Q: Which “5 Minute Guinea Pig % HT Uptake” value [1] does the source give for `COCC(CN=Cc1ccccc1O)(CN=Cc1ccccc1O)CN=Cc1ccccc1O` (centres unmarked) [phenol, 2,2'-[[2-[[[(2-hydroxyphenyl)methylene]amino]methyl]-2-methoxymethyl-1,3-propanediyl]bis(nitrilomethylidyne)]bis-] here?
A: Its value is 1.44%.

Q: Which “5 Minute Guinea Pig % HT Uptake” value [2] does the source give for `CC(=NCC(C)(CN=C(C)c1cc(F)ccc1O)CN=C(C)c1cc(F)ccc1O)c1cc(F)ccc1O` (centres unmarked) [R5=H, R6=H, R7=F, R8=H, R3=CH3, R4=CH3, 1',1',1'-tris(5-fluoro-2-hydroxyacetophenoiminemethyl)ethane] here?
A: The value was 0.66%.

Q: For `CCOc1cccc(C=NCC(C)(CN=Cc2cccc(OCC)c2O)CN=Cc2cccc(OCC)c2O)c1O` (centres unmarked) [2-ethoxyphenol, 6,6'-[[2-[[[(3-ethoxy-2-hydroxyphenyl)methylene]amino]methyl]-2-methyl-1,3-propanediyl]bis(nitrilomethylidyne)]bis-], which “5 Minute Guinea Pig % HT Uptake” value [1] is on record?
A: Its value is 0.50%.

Q: With `CC(CN=Cc1cc(C(F)(F)F)ccc1O)(CN=Cc1cc(C(F)(F)F)ccc1O)CN=Cc1cc(C(F)(F)F)ccc1O` (centres unmarked) [R5=H, R6=H, R7=CF3, R8=H, R3=H, R4=CH3] as the compound, how does the “5 Minute Guinea Pig % HT Uptake” value [1] read?
A: The value was 0.51%.

Q: Which results are given for `CCCOCC(CN=Cc1ccccc1O)(CN=Cc1ccccc1O)CN=Cc1ccccc1O` (centres unmarked) [phenol, 2,2'-[[2-[[[(2-hydroxyphenyl)methylene]amino]methyl]-2-propoxymethyl-1,3-propanediyl]bis(nitrilomethylidyne)]bis-]?
A: Guinea Pig Heart/Blood Ratio [1]: 18; 5 Minute Guinea Pig % HT Uptake [1]: 1.48%

Q: With `CCOCC(CN=Cc1ccccc1O)(CN=Cc1ccccc1O)CN=Cc1ccccc1O` (centres unmarked) [phenol, 2,2'-[[2-[[[(2-hydroxyphenyl)methylene]amino]methyl]-2-ethoxymethyl-1,3-propanediyl]bis(nitrilomethylidyne)]bis-] as the compound, how does the “5 Minute Guinea Pig % HT Uptake” value [1] read?
A: The value was 1.71%.

Q: Which “5 Minute Guinea Pig % HT Uptake” value [1] does the source give for `Cc1ccc(C=NCC(C)(CN=Cc2ccc(C)cc2O)CN=Cc2ccc(C)cc2O)c(O)c1` (centres unmarked) [R5=H, R6=CH3, R7=H, R8=H, R3=H, R4=CH3, 3-Methylphenol, 6,6'-[[2-[[[(4-methyl-2-hydroxyphenyl)methylene]amino]methyl]-2-methyl-1,3-propanediyl]bis(nitrilomethylidyne)]bis-] here?
A: Its value is 1.51%.

Q: With `CSc1ccc(C=NCC(C)(CN=Cc2ccc(SC)cc2O)CN=Cc2ccc(SC)cc2O)c(O)c1` (centres unmarked) [R5=H, R6=SCH3, R7=H, R8=H, R3=H, R4=CH3, 3-Methylthiophenol, 6,6'-[[2-[[[(4-methylthio-2-hydroxyphenyl)methylene]amino]methyl]-2-methyl-1,3-propanediyl]bis(nitrilomethylidyne)]bis-] as the compound, how does the “5 Minute Guinea Pig % HT Uptake” value [1] read?
A: The value was 1.72%.

Q: Which results are given for `COc1ccc(O)c(C=NCC(C)(CN=Cc2cc(OC)ccc2O)CN=Cc2cc(OC)ccc2O)c1` (centres unmarked) [1,1,1-tris (5-methoxysalicyl-aldiminomethyl) ethane]?
A: washout from the heart (biodistribution data in rats) [3]: washed out quickly from the heart; washout from the heart (images of a dog's heart) [4]: washed out quickly from the heart; overall charge [5]: no overall charge

Q: With `CCCOCC(CN=Cc1c(O)cc(OC)cc1OC)(CN=Cc1c(O)cc(OC)cc1OC)CN=Cc1c(O)cc(OC)cc1OC` (centres unmarked) [3,5-dimethoxyphenol, 2,2'-[[2-[[[(4,6-dimethoxy-2-hydroxyphenyl)methylene]amino]methyl]-2-propoxymethyl-1,3-propanediyl]bis(nitrilomethylidyne)]bis-] as the compound, how does the “5 Minute Guinea Pig % HT Uptake” value [1] read?
A: Its value is 1.21%.

Q: Which “5 Minute Guinea Pig % HT Uptake” value [1] does the source give for `COc1cc(COCC(CN=Cc2ccccc2O)(CN=Cc2ccccc2O)CN=Cc2ccccc2O)cc(OC)c1OC` (centres unmarked) [phenol, 2,2'-[[2-[[[(2-hydroxyphenyl)methylene]amino]methyl]-2-(3,4,5-trimethoxyphenyl)methoxymethyl-1,3-propanediyl]bis(nitrilomethylidyne)]bis-] here?
A: The value was 1.00%.

Q: Which “5 Minute Guinea Pig % HT Uptake” value [1] does the source give for `Oc1ccccc1C=NCCN(CCN=Cc1ccccc1O)CCN=Cc1ccccc1O` [R5=H, R6=H, R7=H, R8=H, R3=H, R4=--, tris(2-salicylideneiminoethyl)amine] here?
A: The value was 0.84%.

Q: For `COc1ccc(COCC(CN=Cc2c(O)cc(OC)c(OC)c2OC)(CN=Cc2c(O)cc(OC)c(OC)c2OC)CN=Cc2c(O)cc(OC)c(OC)c2OC)cc1` (centres unmarked) [3,4,5-trimethoxyphenol, 2,2'-[[2-[[[(4,5,6-trimethoxy-2-hydroxyphenyl)methylene]amino]methyl]-2-(4-methoxyphenyl)methoxymethyl-1,3-propranediyl]bis(nitrilomethylidyne)]bis-], which “5 Minute Guinea Pig % HT Uptake” value [1] is on record?
A: Its value is 1.04%.

Q: Which “5 Minute Guinea Pig % HT Uptake” value [1] does the source give for `CC(C)COCC(CN=Cc1ccccc1O)(CN=Cc1ccccc1O)CN=Cc1ccccc1O` (centres unmarked) [Phenol, 2,2'-[[2-[[[(2-hydroxyphenyl)methylene]amino]methyl]-2-(2-methylpropoxy)methyl-1,3-propandiyl]bis(nitrilomethylidyne)]-] here?
A: The value was 1.72%.

Q: Which “5 Minute Guinea Pig % HT Uptake” value [1] does the source give for `CCCOCC(CN=Cc1cc(OC)ccc1O)(CN=Cc1cc(OC)ccc1O)CN=Cc1cc(OC)ccc1O` (centres unmarked) [4-Methoxyphenyl, 2,2'-[[2-[[[(5-methoxy-2-hydroxyphenyl)methylene]amino]methyl] -2-propoxymethyl-1,3-propanediyl]bis(nitrilomethylidyne)]bis-] here?
A: The value was 1.52%.

From patent US5071965A, “Novel TC-99M complexes” (Mallinckrodt Medical, Inc., priority 1989, dated 1991)
